Assays:
[1] = system: apoptotic cells in B16-F10 murine melanoma tumor; test: Targeting in-vivo to apoptotic cells in tumor, murine melanoma; fluorescent microscopy; parameters: species or system mice; settings: 2 mg/mouse intravenously, 2 hours
Procedure: Tumors, and especially aggressive malignancies such as melanoma are characterized, in addition to the abnormal tissue proliferation, also by marked apoptosis of tumor cells. The performance of DC in selective targeting of these apoptotic cells within the tumor was therefore examined Mice (c57/black; 8 weeks old male mice) were injected subcutaneously bilaterally, in the flank, with murine melanoma-derived B16-F10 cells (ATCC CRL-6475; 10^5 cells/mice in a volume of 100 μl). Prior to injection, the cell line was maintained in culture in Dulbecco's modified Eagle's medium (DMEM), supplemented with 4 mM of L-glutamine; 100 units/ml of penicillin; 100 μg/ml of streptomycin; 12.5 units/ml of nystatin and 10% of fetal calf serum (FCS). Tumors were allowed to grow for 14 days, by which they reached a diameter of 5-7 mm.
(§1) The DC compound (2 mg/mouse in NaPpi buffer, pH. 7.40) was injected intravenously. Two hours later, the mice were scarified and the tumors, as well as other organs were taken, and immediately frozen in liquid nitrogen. Frozen sections were then prepared from each of the organs. Uptake of DC by the tumors or other organs was assessed by fluorescent microscopy.
The performance of NST730 in selective targeting to apoptotic cells within a tumor examined as described in Example 7. Mice (c57/black; 8 weeks old male mice) were injected subcutaneously bilaterally, in the flank, with murine melanoma-derived B16-F10 cells (ATCC CRL-6475; 10^5 cells/mice in a volume of 100 μl). Tumors were allowed to grow for 14 days, by which they reached a diameter of 5-7 mm.
as §1, with “The NST730 compound (2” for “The DC compound (2”, “Uptake of NST730 by the” for “Uptake of DC by the”, “tumors or by other organs” for “tumors or other organs”

[2] = system: neuronal cell death following MCA occlusion; test: Detection of neuronal cell death following middle cerebral artery (MCA) occlusion; assay type: in vivo; settings: Balb/C mice; 70 mg/kg intravenously 22 hours after MCA cauterization, 2 hours
Procedure: (§2) Cerebral ischemia was induced in Balb/C mice (10-12 weeks) by cauterization of the middle cerebral artery. Mice were anesthetized, and the temporal bone was exposed. Scraping off the bone up to a minimal hole allowed exposure of the artery subjecting it to cauterization. 22 hours later, NST732 (70 mg/kg) was injected intravenously. Two hours later (at 24 h from induction of the injury), mice were anesthetized and sacrificed, and brains were removed into liquid nitrogen for histopathological analysis of the frozen sections. Four μm thick sections were prepared for fluorescent microscopic analysis to follow the cells stained positively with NST732.
as §2, with “cauterization,” for “cauterization.”, “NST730” for “NST732”, “sections, as described in Example 11.” for “sections. Four μm thick sections were prepared for fluorescent microscopic analysis to follow the cells stained positively with NST732.”

[3] = system: Jurkat cells undergoing apoptosis induced by anti-Fas Ab; test: Selective binding to apoptotic Jurkat cells; flow-cytometric (FACS) analysis; assay type: cell-based, human; settings: 20 minutes
Procedure: Cultured Jurkat cells (human adult T cell leukemia cells) were grown in suspension in RPMI medium (Beit-Haemek, Israel), supplemented with 10% of fetal calf serum (FCS), 4 mM of L-glutamine, 1 mM of sodium pyruvate, […] and antibiotics (100 units/ml penicillin; 100 μg/ml streptomycin and 12.5 units/ml of nystatin). Prior to induction of apoptosis, medium was replaced with HBS buffer (10 mM HEPES; 140 mM NaCl, 1 mM CaCl). Apoptosis was then triggered by treatment with anti-Fas Ab (0.1 μg/ml; 3 hrs). As a result, a marked percentage of the cells became apoptotic, and is regarded as newly formed early apoptotic cells. Non-treated cells served as control. Both control cells and apoptotic cells were then incubated for 20 minutes with 100 μM of NST705. […] The analysis shown in FIG. 1 describes the uptake of NST705 compound into the population of apoptotic cells in control and anti-fas treated cultures.
(§3) In the dot plot shown in FIG. 1A and FIG. 1B, the left lower quadrant represents the healthy, non-stained fraction of cells. The right lower quadrant represents the newly formed population of cells in the early stages of apoptosis. These cells still maintain membrane integrity and thus exclude PI. Cells binding both NST705 and PI, i.e., cells in the late stages of apoptosis are represented in the right upper quadrant.
(§4) Cultured Jurkat cells (human adult T cell leukemia cells) were grown in suspension in RPMI medium (Beit-Haemek, Israel), supplemented with 10% of fetal calf serum (FCS), 2 mM of L-glutamine, 1 mM of sodium pyruvate, […] and antibiotics (100 units/ml penicillin; 100 μg/ml streptomycin and 12.5 units/ml of nystatin). Prior to induction of apoptosis, medium was replaced with HBS buffer (10 mM HEPES; 140 mM NaCl, 1 mM CaCl). Apoptosis was then triggered by treatment with anti-Fas Ab (0.1 μg/ml; 3 hrs). As a result, a marked percentage of the cells became apoptotic. Non-treated cells served as control. Both control cells and apoptotic cells were then incubated for 20 minutes with 100 μM of NST703. Subsequently, cells were co-stained with propidium iodide (P). Binding of NST703 to the control and apoptotic cells was determined by flow cytometric (FACS) analysis using Becton-Dickinson cell sorter and CellQuest software (excitation was at 356 nm and emission was measured at 530 nm).
as §3, with “2A” for “1A”, “2B,” for “FIG. 1B,”, “NST703” for “NST705”
as §4, with “penicilin;” for “penicillin;”, “DC.” for “NST703.”, “(PI).” for “(P).”, “DC” for “NST703”
FIG. 4A and FIG. 4B are each a representative FACS dot plot, showing that activation of apoptosis leads to a marked uptake of DC by cells in the early stages of apoptosis (FIG. 4B), as compared to control cells (FIG. 4A). […]

[4] = system: chemotherapy-induced apoptotic cells of lymphoma tumors; test: In-vivo targeting to chemotherapy-induced apoptotic cells of lymphoma tumors; fluorescent microscopy; settings: DBA/2 mice, Taxol 20 mg/Kg; 1.4 mg/mouse injected 24 h later, 2 hours
Procedure: Lymphoma tumors were induced in 8 weeks old male DBA/2 mice (Harlan laboratories, UK) by subcutaneous injection of lymphoma cells. The cells, from a chemically-induced LY-R clone were obtained from ATCC(CRL-1722), and maintained by subsequent passages in mice. For induction of tumors, 5×10^5 cells in a volume of 100 μl were injected into the thigh region in mice. […] Twenty-four hours later, NST705 was injected systemically at a dose of 1.4 mg/mouse. Two hours later, mice were sacrificed and tumors were frozen in liquid nitrogen. Cryosections were then prepared and serial slides were subjected to either hematoxylin & eosin (H&E) staining or fluorescent microscopy evaluation (excitation wavelength of 360 nm, emission at 530 nm), using an Olympus fluorescent microscope (model IX70).

apoptotic HeLa S3 cells = test: Selective binding to apoptotic HeLa cells in vitro; flow-cytometric analysis; assay type: cell-based; settings: culture aged 96 hours; FACS
Procedure: HeLa S3 cells (ATCC CCL-2.2) were grown in Dulbecco's modified Eagle's medium (DMEM), supplemented with 2 mM of L-glutamine; 100 units/ml of penicillin; 100 μg/ml of streptomycin; 12.5 units/ml of nystatin and 10% of fetal calf serum (FCS). Cells were seeded at a density of 5×10^6 cells/plate, on a […] culture plates, in a volume of 10 ml, and were allowed to age by incubating the culture for 96 hours without exchange of the growth medium. As a result, a marked percentage of the cells became apoptotic. Cells were harvested using a cell scraper, separated to single cells by passage through a syringe with a 18 G needle, and re-suspended at a density of 10^6 cells/ml in PBS buffer at pH=7.4. […] The analysis shown in FIG. 10 describes the uptake of NST601 compound into the population of apoptotic cells.

[5] = system: murine lymphoma cells undergoing cell death induced by irradiation; test: Detection of cell death induced by irradiation in vivo; murine lymphoma; settings: irradiated DBA mice (3 fractions of 6 Gray); 70 mg/kg intravenously, 2 hours
Procedure: DBA mice (5-6 weeks old males, Jackson laboratories) were injected subcutaneous with 10^6 lyS cells in 50 μl saline and were examined daily for tumor formation. At days 8, 9 and 10 mice were placed in a Perspex box and irradiated with 6MV x-rays apparatus (Linac) in fractions of 6 Gray each. Each mouse received a dose of about 1.0 centiGray per monitor unit. At day 13 (72 hours following the last irradiation) mice were injected intravenously with NST 732 (70 mg/kg, dissolved in Tris base containing 25% cremophore RH410, pH=9). After 2 hours, tumors were excised, frozen in liquid nitrogen and submitted for histopathological assessment.

[6] = apoptotic cells (anti-Fas Ab 0.1 μg/ml, 3 hrs), 100 μM compound
[7] = non-treated control cells, 100 μM compound

## CN(C)c1cccc2c(S(=O)(=O)NC(C)(CF)C(=O)O)cccc12 (stereo not drawn) [NST730]
[1]; colon, kidney, spleen and heart
  binding to other non-target tissues: lack of significant binding
[1]; muscle tissue of the same animal
  binding to normal, viable tissue: lack of binding
[1]
  binding to tumor cells undergoing apoptosis: Extensive binding
  staining of viable tumor cells: remain unstained
[2]
  binding to cells in the infarcted (damaged) area: extensive binding
  binding to cells outside the infarcted area: did not manifest significant binding

## CN(C)c1cccc2c(S(=O)(=O)O)cccc12 [DA, dansylic acid]
[3]; apoptotic cells (anti-Fas Ab 0.1 μg/ml, 3 hrs), 250 μM compound
  percent of identified early apoptotic events within the population (cells binding compound, excluding PI): 77%
[3]; non-treated control cells, 250 μM compound
  percent of identified early apoptotic events within the population (cells binding compound, excluding PI): 4.2%

## CCCCN(CCCC)c1cccc2c(S(=O)(=O)N[C@@H](CC(=O)O)C(=O)O)cccc12 [NST705, (5-dibutylamino-naphthalene-1-sulfonyl)-L-aspartic acid]
[3]; [6]
  percent of identified early apoptotic events within the population (cells binding compound, excluding PI): 70.8%
[3]; [7]
  percent of identified early apoptotic events within the population (cells binding compound, excluding PI): 3%
[4]
  uptake by tumor cells undergoing cell death: marked uptake
  uptake by viable, non-apoptotic tumor cells: not observed

## CN(C)c1cccc2c(S(=O)(=O)N[C@@H](CS)C(=O)O)cccc12 [DC, dansylcysteine]
[1]; small intestine tissue of the same animal
  binding to normal, viable tissue: lack of binding
[1]
  binding to tumor cells undergoing apoptosis: Extensive binding
  staining of viable tumor cells: remain unstained
[3]; [6]
  percent of identified early apoptotic events within the population (cells binding compound, excluding PI): 76%
[3]; [7]
  percent of identified early apoptotic events within the population (cells binding compound, excluding PI): 2.3%

## CCCCN(C)c1cccc2c(S(=O)(=O)O)cccc12 [NST601, 5-Butylmethylamino-naphtalene-1-sulfonic acid]
Apoptotic HeLa S3 cells
  binding to apoptotic cells: selective binding
  staining of cells that do not undergo a process of cell death: remained non-stained

## CCC(CF)(NS(=O)(=O)c1cccc2c(N(C)C)cccc12)C(=O)O (stereo not drawn) [NST732]
[5]
  binding to tumor cells undergoing apoptosis: extensive binding
[2]
  binding to cells in the infarcted (damaged) area: extensive binding
  binding to cells outside the infarcted area: did not manifest significant binding

## CCCCN(C)c1cccc2c(S(=O)(=O)NCC(=O)O)cccc12 [NST703, (5-Butylmethylamino-naphtalene-1-sulfonyl)-glycine]
[3]; [6]
  percent of identified early apoptotic events within the population (cells binding compound, excluding PI): 75.6%
[3]; [7]
  percent of identified early apoptotic events within the population (cells binding compound, excluding PI): 3.27%
